42 molecules from ChEMBL document CHEMBL1201862, “PubChem BioAssay data set” (2004) can be followed below.

For orientation: EC50 means the concentration that produces a half-maximal response. The term AC50 denotes the concentration giving half of the maximal activity seen. Usually IC50 stands for the concentration that inhibits the measured activity by half.

Active and inactive are the calls of the source.

Assay [1] is described as follows: viability of PTEN-deleted HCT116 cells – cell-based, HCT116 PTEN knockout, dose response (AID 1047).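 Note: HCT116 colon tumor cells with PTEN knocked out; cells exposed to compound for 60 hours before readout; potency for loss of cell viability measured by luminescence.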 In kind it is functional.
The nature of assay [2]: viability of HCT116 lacking mutant beta-catenin – cell-based, human colon tumor, dose response (AID 1045).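 Note: HCT116 colon tumor cells with beta catenin knocked out; cells exposed to compound for 60 hours.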 In kind it is functional.
Assay [3] in a line: NIH-3T3 fibroblast cytotoxicity, dose response, cytotoxicity control, cell-based, fluorescence, Alamar Blue, secondary assay (AID 2327).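 Note: NIH-3T3 mouse fibroblasts cultured with fluconazole at 8 µg/mL.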 It counts as functional. For orientation: The colour change of resazurin is a common sign of viable cells or microbes.
Assay [4] can be described thus: fluconazole-exposed Candida albicans growth modulators – fluorescence, retest, confirmation (AID 2467). It counts as functional, cell-based.
Assay [5] can be described thus: Trypanosoma cruzi growth suppression in host cells – NIH3T3 host cells, beta-gal luminescence, confirmation (AID 2044).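 Note: intracellular parasites grown in NIH/3T3 mouse fibroblasts as host cells; luminescent beta-galactosidase reporter signal from transgenic T. cruzi replicating inside host cells; inhibitors lower the luminescence signal.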 It counts as functional, cell-based.
The nature of assay [6]: NIH3T3 cell viability loss – ATP luminescence, mouse fibroblasts, counter-screen, dose response (AID 2010).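 Note: cells exposed to compound for about 90 hours before reading.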 In kind it is functional, cell-based.
Assay [7] can be described thus: reduction of Shn3 3'UTR-driven luciferase in osteoblasts – cell-based, Clone20 osteoblasts, firefly luciferase, cherry-picked, dose response (AID 624132).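 Note: firefly luciferase luminescence from reporter carrying the Shn3 3'UTR in osteoblasts.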 In kind it is functional.
Assay [8] is described as follows: loss of viability in HepG2 cells – cell-based, CellTiter-Glo, cherry-picked, cytotoxicity control for Shn3 inhibitor project, dose response (AID 624134). In kind it is functional.
A short description of assay [9]: non-specific 3'UTR reporter inhibition in Clone20-Shn3RL – cell-based, Renilla luciferase, cherry-picked, counter-screen for Shn3 inhibitor project, dose response (AID 624133). It counts as functional. (In general: Counterscreens check selectivity or assay interference.)
Assay [10] can be described thus: Luminescence Cell-Based Dose Retest to Confirm Inhibitors of Cancer Stem Cells. [Related pubchem assays (depositor defined):AID2717, AID2721]. It counts as functional. Particulars: Homo sapiens.
Assay [11] deals with INS1. The assay can be described thus: INS-1E survival protection against cytokine death – cell-based, luminescence, retest, dose response (AID 449756).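 Note: cell death triggered by IL-1 beta plus TNF-alpha plus IFN-gamma mixture; protective hits raise ATP signal compared with cytokine alone wells.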 In kind it is functional. The conditions noted are these: Rattus norvegicus.
Assay [12] deals with T1, Rac GTPase-activating protein 1 (Homo sapiens, UniProt Q9H0H5).
T1 sequence (Q9H0H5 whole entry): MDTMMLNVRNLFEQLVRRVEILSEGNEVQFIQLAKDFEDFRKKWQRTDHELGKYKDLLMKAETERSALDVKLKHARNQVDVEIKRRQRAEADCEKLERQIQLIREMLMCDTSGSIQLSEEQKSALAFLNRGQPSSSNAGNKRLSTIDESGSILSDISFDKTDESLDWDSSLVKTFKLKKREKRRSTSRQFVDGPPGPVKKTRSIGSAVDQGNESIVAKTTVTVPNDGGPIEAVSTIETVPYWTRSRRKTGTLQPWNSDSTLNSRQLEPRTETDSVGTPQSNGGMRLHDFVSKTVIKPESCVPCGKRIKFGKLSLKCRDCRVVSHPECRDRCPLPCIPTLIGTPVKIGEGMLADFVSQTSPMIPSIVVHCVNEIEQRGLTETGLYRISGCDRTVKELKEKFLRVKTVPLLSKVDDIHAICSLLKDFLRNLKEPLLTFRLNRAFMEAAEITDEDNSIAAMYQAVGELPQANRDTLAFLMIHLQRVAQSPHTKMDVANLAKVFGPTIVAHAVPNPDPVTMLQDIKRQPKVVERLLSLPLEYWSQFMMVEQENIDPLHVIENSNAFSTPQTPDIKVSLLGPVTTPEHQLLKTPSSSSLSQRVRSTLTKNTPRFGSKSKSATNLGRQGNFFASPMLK
The assay can be described thus: blockers of MgcRacGAP-driven Rac1 GTP hydrolysis – biochemical, ADP Hunter fluorescence, primary and confirmatory, confirmation (AID 624330). It counts as functional.

Assay [13] is described as follows: luciferase reporter signal suppression in cells – H4 neuroglioma cells, luminescence, dose response (AID 1990). It counts as functional, cell-based. (In general: In a reporter assay the amount or activity of a reporter protein is the signal.)
Assay [14] can be described thus: Luminescence Cell-Based Dose Response HTS to Identify Inhibitors of 5'UTR Stem-Loop Driven Prion Protein mRNA Translation in H4 Neuroglioblastoma Cells. [Related pubchem assays: 1827 (Project Summary), 1813 (Primary HTS)]. It counts as functional.
Assay [15] can be described thus: alpha-synuclein stem-loop luciferase translation blockers – H4 neuroglioma cells, luminescence, confirmation (AID 1988). It counts as functional, cell-based.
For assay [16], the system named is Streptococcus sp. 'group A'. The assay can be described thus: Streptococcus pyogenes SK(-)GAS viability under kanamycin – luminescence, BacTiterGlo, confirmation, counter-screen for streptokinase expression inhibitor project, dose response (AID 1900). It counts as functional, organism-based.
Assay [17] concerns Streptococcus. The assay can be described thus: GAS UMAA2166 growth inhibition – luminescence, BacTiterGlo, counter-screen for streptokinase expression inhibitor project, dose response (AID 1915).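 Note: potency for reduction of bacterial viability or growth.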 It counts as functional, organism-based.
Assay [18] has as its target Paired box protein Pax-8 (Homo sapiens, UniProt Q06710). The assay can be described thus: PAX8 transcriptional activity inhibition in RMG-I – RMG-I cells, luciferase, cherry-pick, dose response (AID 687027).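 Note: luciferase reporter driven by Pax8 target thyroperoxidase promoter measured by SteadyGlo luminescence.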 In kind it is functional, cell-based.

Sequence of Paired box protein Pax-8 (Q06710 whole entry): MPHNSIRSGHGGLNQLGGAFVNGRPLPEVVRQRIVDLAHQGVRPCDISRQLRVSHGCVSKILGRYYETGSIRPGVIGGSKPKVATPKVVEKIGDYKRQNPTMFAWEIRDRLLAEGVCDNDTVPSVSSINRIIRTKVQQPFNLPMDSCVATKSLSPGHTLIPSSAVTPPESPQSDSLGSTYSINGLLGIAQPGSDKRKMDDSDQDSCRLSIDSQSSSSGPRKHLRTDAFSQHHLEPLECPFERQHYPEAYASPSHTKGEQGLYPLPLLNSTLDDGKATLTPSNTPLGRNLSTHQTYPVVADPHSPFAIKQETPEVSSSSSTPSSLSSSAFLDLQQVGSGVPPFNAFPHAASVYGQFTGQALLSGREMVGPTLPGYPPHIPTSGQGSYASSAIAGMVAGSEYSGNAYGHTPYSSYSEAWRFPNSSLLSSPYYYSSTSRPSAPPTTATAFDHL

In the case of `Cc1ccc2[nH]c(SCC(=O)Nc3cc([N+](=O)[O-])ccc3F)nc2c1`, the figures for the concentration giving a half-maximal response (EC50) in assay [1] and in [2] were 14 µM (active) and 20.6 µM (active), respectively.
As for `Clc1ccc(OCCn2ccnc2)c2ccccc12`, the EC50 is > 150 µM (inactive) in assay [3], 3.78 µM (active) in assay [4], 3.91 µM (active) in assay [5] and > 60 µM (not active) in assay [6].
As to `CC(C)CC(=O)NCc1ccc2[nH]c3c(c2c1)CCCC3`, the EC50 in assay [3] was > 160 µM (inactive); in [4], > 38 µM (not active).
On to `CCc1ccc(C(=O)NNc2ccc(F)cc2)cc1`, for which the half-maximal effective concentration (EC50) was 12.2 µM (active) in assay [3] and > 38 µM (not active) in assay [4].
As to `Cc1onc(-c2ccccc2Cl)c1C(=O)N1CCC(Cc2ccccc2)CC1`, the half-maximal activity concentration (AC50) in [7] is 2.29 µM (active); in assay [8], 46.3 µM (active); in assay [9], 4.54 µM (active).
Regarding `O=C(c1ccc(COc2c(F)c(F)cc(F)c2F)o1)N1CCN(c2ccc(Cl)cc2)CC1`, the values for the EC50 in assay [1] and in assay [2] were 21.5 µM (active) and 11.7 µM (active), respectively.
In the case of `O=C(NNc1ccccc1)C(CCO)C(=O)NNc1ccccc1`, the EC50 was 19.6 µM (active) in [3] and > 38 µM (not active) in assay [4].
For `CCCC(=O)NC(=S)NNC(=O)c1ccc([N+](=O)[O-])cc1` the same measures were > 160 µM (inactive) and 10.1 µM (active).
Turning to `CCCCCCSc1ccc(-c2nc3ccccn3c2NCCCC)cc1`, the AC50 in assay [10] is 4.4 µM (active).
Regarding `COC(=O)c1ccc2c(=O)n(Cc3ccco3)c(SCC(=O)Nc3ccccc3Cl)nc2c1`, the EC50 in assay [1] is 37.5 µM (active); in assay [2], 44.3 µM (active).
As to `COc1ccc(OC)c(NC(=O)c2cc(-c3cc(Cl)ccc3O)[nH]n2)c1`, the EC50 was 36.7 µM (active) in assay [1] and 39.2 µM (active) in assay [2].
Take `C=CCCc1ccc(C#N)c(SCc2c(C(=O)OCC)c3cc(OC(C)=O)c(Br)cc3n2C)n1`: the half-maximal activity concentration (AC50) in assay [11] was 1.14 µM (active); in assay [8], 9.37 µM (active); in assay [9] it was 2.75 µM (active).
On to `COc1cc(/C=C/C(=O)OCC(=O)Nc2c(C)n(C)n(-c3ccccc3)c2=O)ccc1O`, for which the concentration for half-maximal inhibition (IC50) in assay [12] was 63.9 µM (active).
Regarding `COc1cccc(NP(=O)(Oc2ccccc2)Oc2ccccc2)c1`, the EC50 in assay [13] is > 120 µM (not active); in [14], 59.4 µM (active); in assay [15], > 120 µM (not active). In assay [10], the AC50 was 0.935 µM (active).
Turning to `c1ccc(CC2CCN(Cc3ccccn3)CC2)cc1`, in [12], the IC50 was 216 µM (active).
As for `Cc1cc(C)c(S(=O)(=O)Nc2nnc(C3CCCCC3)s2)c(C)c1`, the EC50 was > 160 µM (inactive) in [3] and 1.93 µM (active) in [4].
Consider `COc1cc(/C=C(/NC(=O)c2ccccc2)C(=O)Nc2ccc(O)cc2)c([N+](=O)[O-])cc1OC`, for which the IC50 in [12] was 55.7 µM (active).
On to `CCCNc1nc2c(c(=O)n(C)c(=O)n2C)n1Cc1cccc(C)c1`, for which the concentration at half-maximal activity (AC50) in [7] was 1.91 µM (active); in [8], > 70 µM (inactive); in assay [9], 8.85 µM (active).
Regarding `COc1cc(OC)cc(C(=O)N2CCN(Cc3ccccc3Br)CC2)c1`, the IC50 in [12] is 325 µM (active).
With `O=C(O)c1ccc(Nc2cnc3ccccc3n2)cc1`, the EC50 is > 160 µM (inactive) in assay [3] and > 38 µM (not active) in assay [4].
For the molecule `O=C(Nc1ccc(F)cc1)c1nc[nH]c1C(=O)Nc1ccc([N+](=O)[O-])cc1`, the EC50 in [1] was 17.6 µM (active); in assay [2], 11.2 µM (active).
Turning to `CCc1ccc(OCC(=O)NC(N=C(S)Nc2ccc(C)cc2C)C(Cl)(Cl)Cl)cc1` (stereo unspecified), the concentration for a half-maximal effect (EC50) in assay [16] was 3.3 µM (active); in assay [1] it was 30.8 µM (active); in [2], 41.1 µM (active); in [17], 8.13 µM (active). The half-maximal activity concentration (AC50) in [11] was 7.48 µM (active).
Take `c1ccc(-n2nnnc2Oc2cccc3cccnc23)cc1`: the results for the EC50 in assay [1] and in assay [2] were 22.6 µM (active) and 20.8 µM (active), respectively.
In the case of `CCOC(=O)C1=C(CSc2nc3ccccc3s2)NC(=O)NC1c1ccc(OC)cc1` (stereo unspecified), in [10], the AC50 was 5.99 µM (active).
With `CC1CCN(CCc2nc3cc(NS(=O)(=O)c4ccccc4)ccc3n2C)CC1`, the AC50 in assay [18] is 12.1 µM (active).
Take `Cc1ccc(NS(=O)(=O)c2cc([N+](=O)[O-])ccc2NN=C(S)Nc2cc(C)ccc2C)c(C)c1`: the AC50 in [10] is 1.12 µM (active); in assay [11], 4.42 µM (active).
For the molecule `Cc1ccc(CCc2nnc(SCC(=O)Nc3cccc(Cl)c3)n2-c2ccccc2)o1`, the AC50 in [18] was 25.4 µM (active).
Take `O=C(CNCc1cccs1)Nc1ccc(N2CCCCCC2)cc1`: in assay [12], the 50% inhibitory concentration (IC50) is 107 µM (active).
Take `CCN(CC)S(=O)(=O)c1cccc(NC(=O)CNc2cccc(S(=O)(=O)N3CCOCC3)c2)c1`: the AC50 was 0.865 µM (active) in assay [7], 1.08 µM (active) in [8] and 2.77 µM (active) in [9].
With `C=CCn1c(SCC(=O)c2[nH]c(C)c(C(=O)OC)c2C)nc2scc(-c3ccc(OC)c(OC)c3)c2c1=O`, the values for the concentration for a half-maximal effect (EC50) in assay [13], in [14] and in [15] were 6.33 µM (active), 8.16 µM (active) and 5.89 µM (active), respectively. For the same molecule, the half-maximal activity concentration (AC50) in [7] was 2.01 µM (active); in assay [8] it was 41.2 µM (active); in assay [9] it was 24.8 µM (active).
`O=C1Nc2ccccc2C1=Nc1ccc2[nH]c3ccccc3c2c1`: in assay [12], the IC50 is 16.6 µM (active).
`CSc1nc(N)nc2c1ncn2CC(=O)N1CCN(Cc2c(C)cc(C)cc2C)CC1`: the AC50 in assay [11] is 1.98 µM (active); in assay [7] it was 0.526 µM (active); in assay [8], 33.6 µM (active); in [9] it was 2.02 µM (active).
Consider `Cc1ccccc1OCCn1cc(C(=S)N2CCCC2)c2ccccc21`, for which the AC50 in [7] was 24.3 µM (active); in [8] it was > 70 µM (inactive); in assay [9], 20.9 µM (active).
Consider `Cc1csc(=O)n1CC(=O)OC(C)C(=O)Nc1ccc(N(C)C)cc1` (stereo unspecified), for which the IC50 in assay [12] is 51.4 µM (active).
For `C[C@@H]1CN([C@H](C)CO)S(=O)(=O)c2ccc(C#Cc3ccncc3)cc2O[C@H]1CN(C)C(=O)Nc1ccc2c(c1)OCO2`, in assay [18], the AC50 was 3.68 µM (active).
Same read-out and setting: under `O=C(C[C@H]1CC[C@@H]2[C@H](COC[C@@H](O)CN2Cc2ccc(F)cc2)O1)NCc1ccccc1Cl` stands 41.2 µM (active); under `C[C@@H]1CN([C@H](C)CO)C(=O)c2cc(NS(=O)(=O)c3ccc(F)cc3)ccc2O[C@@H]1CN(C)Cc1ccc(C(F)(F)F)cc1`, 22.2 µM (active); under `C[C@@H]1CCCCO[C@H](CN(C)Cc2ccc(C(F)(F)F)cc2)[C@@H](C)CN([C@@H](C)CO)C(=O)c2cc(NS(=O)(=O)c3cccs3)ccc2O1`, 7.62 µM (active).
As for `O=C(CNS(=O)(=O)c1ccccc1)N/N=C/c1ccc(O)cc1`, the IC50 in assay [12] was 60 µM (active).
As for `COc1ccc(C(=O)N/N=C(\Cc2ncc[nH]2)c2ccccc2)cc1`, the EC50 in [3] was 7.31 µM (active); in assay [4], > 38 µM (not active); in assay [5], 1.46 µM (active); in assay [6] it was 7.77 µM (active).
`CCN(/C=N/C1=NN(c2cccc(C(F)(F)F)c2)CC1)CC`: in [12], the IC50 was 32.9 µM (active).
For `COc1cc(/C=N/NC(=O)C(C)Nc2nnc(O)nc2O)ccc1O` (stereo unspecified), in [12], the IC50 was 57.2 µM (active).
